The values that follow come from US20250114324A1, “ANTIMICROBIAL MATERIALS AND NANOPARTICLES AND METHODS OF USE THEREOF” (Arizona Board of Regents on behalf of Arizona State …, priority 2022, published 2025).

For series [1] the following is noted: pH>7; cited from earlier work.
The conditions of series [2]: cited from earlier work.
For series [3] the following is noted: room temperature; cited from earlier work.
A short description of series [4]: In vitro release profile (dialysis method). The class given is physicochemical. The following applies: for release profile: 37° C. (FIG. 17C). As to the method:
(§1) The chemical stability is measured by detecting remaining phytochemicals' concentrations at different time points using the HPLC system. The release profile is measured using a dialysis method. Briefly, native phytochemicals and NCs are each put into dialysis bags with Molecular Weight Cut Off (MWCO) 6,000-8,000. The dialysis bags are dipped into the dissolution medium composed of 1×PBS and methanol (9:1, v:v). The dissolution medium is stirred at 200 rpm at 4° C. and 22° C. The dissolution medium is changed completely every 2 hours for the first 24 hours, and every 6 hours for the rest 30 days. The amounts of phytochemicals in the release medium are measured using the above HPLC methods.
Using R-NPs as an example, the NPs were stable at both 4° C. and 22° C. (FIG. 17A). Nanoencapsulation increased R's stability (FIG. 17B). Similarly, Q and RQ were also stable at 4° C. and 22° C. after encapsulation. A dialysis method was used to measure R and Q release profiles from NPs at 37° C. […] The release profiles of NPs were even slower at 4° C. and 22° C.

A short description of series [5]: Pharmacokinetics and bioavailability of Q after oral administration to rats. Particulars: male, Sprague-Dawley, rat, 50 mg/kg. As to the method: Male Sprague-Dawley rats (n=3 per group) weighing 200-250 g were purchased pre-cannulated from Harlan Laboratories (Indianapolis, IN). The rounded tips catheters were surgically implanted into the jugular vein of the rats with the benefits of multiple blood draw. […] Blood was collected via the catheters at hour 0, 1, 2, 3, 4, 6, 8, 10, 14, 24, 36, and 48 into heparinized tubes. Blood Q concentrations were measured using a HPLC system (FIG. 5). Pharmacokinetic parameters were determined on each individual set of data by using a non-compartmental model (Song I, Eur J Clin Pharmacol. 2016; 72:665-670). […] The relative bioavailability Fr at infinity was calculated as Fr=AUCQ-NLC, […]/AUCQ, 0→∞. The half-life (t1/2)=0.693/k. The mean residence time (MRT)=1/k.
Male Sprague-Dawley rats (n=3 per group) weighing 200-250 g and the rounded tips catheters were surgically implanted into the jugular vein of the rats with the benefits of multiple blood draw. […] Blood was collected via the catheters at hour 0, 1, 2, 3, 4, 6, 8, 10, 14, 24, 36, and 48 into heparinized tubes. Blood Q concentrations were measured using an HPLC system (FIG. 21). Pharmacokinetic parameters were determined on each individual set of data by using a non-compartmental model. […] The area under the plasma concentration time curve from time zero to infinity (AUC0→∞) was calculated as AUC0→24 h+Ct/Ke, where Ct was the Q concentration observed at the […] time, and Ke is the apparent elimination rate constant obtained from the terminal slope of the individual plasma concentration-time curves after logarithmic transformation of the plasma concentration values and application of linear regression. The relative bioavailability Fr at infinity was calculated as Fr=AUCQ-NP, 0→∞/AUCQ, 0→∞. The half-life (t1/2)=0.693/k. The mean residence time (MRT)=1/k.

For the next series, the system named is E coli (ATCC 43895). Kind of series: Antibacterial activity (absorbance at 595 nm), Example 3. It counts as cell-based. Particulars: 300 μg/mL R or Q; free RQ 240 μg/mL (FIG. 19B). The source says:
(§2) The antibacterial activity of all NPs and their controls against Salmonella enterica subsp. enterica (S. enterica ATCC 13076), Listeria monocytogenes (L. monocytogenes ATCC 15313), E coli (ATCC 43895) and Staphylococcus aureus subsp. aureus (S. aureus ATCC 25923) were investigated.

Series [6] relates to L. monocytogenes ATCC 15313. The description is as above. The class given is cell-based, Listeria monocytogenes. The following applies: 300 μg/mL R or Q; free RQ 240 μg/mL (FIG. 19C).
Source text: as §2

The test system of another series is E. coli (48953). Kind of series: Anti-bacterial assay (OD 600 nm, CFU), Example 2. It counts as cell-based. Particulars: 100 μg/mL, 24 h of incubation. As to the method:
(§3) The concentrations of R and Q in the NPs were characterized by HPLC. Three parallel experiments were performed for each sample, the absorbance of bacteria solution treated with different samples was measured by a microplate reader at a wavelength of 600 nm. S. enteritidis (13076), L. monocytogenes (15313), E. coli (48953) and S. aureus (25923) were used in this study and treated with R-NPs, Q-NPs, RQ-NPs, and CS-coated R-NPs, Q-NPs, and RQ-NPs, respectively. Different concentrations of R-NPs and Q-NPs were investigated. Initially, 50 μg/mL R and R-NPs were used. […] S. enteritidis, L. monocytogenes, E. coli and S. aureus were cultured in broth media under constant shaking at 100 rpm at 37° C. to reach the mid exponential growth phase. The number of bacteria was determined by counting the CFU formed on the agar plate. Bacterial suspensions were diluted to approximately 1×10^4-5 CFU/mL in broth media. The NPs solution (20 μL) was mixed with 180 μL of bacterial suspension in a 96-well plate, and the experiments were performed in triplicates. The plates were incubated at 37° C. under constant shaking at 100 rpm overnight, and the optical density (OD) at 600 nm was measured on a plate reader.

Another series has as its system S. aureus (25923). The series is described as follows: Anti-bacterial assay (OD 600 nm, CFU), Example 2. The class given is cell-based. The following applies: 100 μg/mL, 24 h of incubation. As to the method:
as §3

In the next series the test system is S. enteritidis (13076). The series is described as follows: Anti-bacterial assay (OD 600 nm, CFU), Example 2. The class given is cell-based. Particulars: 100 μg/mL, 24 h of incubation. As to the method: as §3
For a further series, the system named is L. monocytogenes (15313). The series is described as follows: Anti-bacterial assay (OD 600 nm, CFU), Example 2. The class given is cell-based. The following applies: 100 μg/mL, 24 h of incubation. As to the method: as §3
In series [7] the test system is S. enteritidis (13076), L. monocytogenes (15313), E. coli (48953) and S. aureus (25923). The series is described as follows: Anti-bacterial assay, Example 2, result stated for the four strains together. The class given is cell-based. Set-up: anti-bacterial effects: dose or concentration left out as unconfirmed. As to the method: as §3, with “The plates were incubated at 37° C. under constant shaking at 100 rpm overnight, and the optical density (OD) at 600 nm was measured on a plate reader.” left out

Series [8] in a line: Stability of nano-encapsulated and native EGCG in 1×PBS at pH 7.4. The class given is physicochemical. The following applies: neutral pH (7.4). As to the method:
Three independent experiments were conducted at each time point.
The degradation rate of EGCG in NLCs and CSNLCs were much slower.
as §1

The conditions of series [9]: after drinking tea containing catechins at 10 mg/kg body weight; cited from earlier work.
The conditions of series [10]: after drinking 2 cups of green tea; cited from earlier work.

Each structure is given as a SMILES string. Like-named read-outs stand apart in the source and are kept apart here.

With `COc1cc(/C=C/C(=O)CC(=O)/C=C/c2ccc(O)c(OC)c2)ccc1O` [curcumin, Curcumin], the half-life in [1] was less than 0.167 h. The solubility in water result in [2] is “less than 0.1 mg/mL”.
Turning to `O=c1c(O)c(-c2ccc(O)c(O)c2)oc2cc(O)cc(O)c12` [Q], in series [3], the “dissolution of 20 mg in 10 mL of 1×PBS” value is “not able to be dissolved”. In series [4] (dialysis method), the release profile entry is given as “burst release”. For the same molecule, the release pattern entry in [4] (dialysis method, release medium (FIG. 4B)) was “burst release pattern”. This molecule also gave a half-life in [5] (in vivo) of 16.7 ± 10.5 h. Moreover, in series [5] (po), the Cmax is 964 ± 536 ng/mL, the Ke came out at 0.07 ± 0.06 h⁻¹, the MRT was 12.1 ± 15.1 h and the Tmax came out at 2 h. In addition, in series [5] (po, AUCo→24 h), the area under the curve (AUC) was found to be 14600 ± 6270 ng·h/mL. The exposure (AUC) in series [5] (po, AUCo→∞) worked out at 15300 ± 6090 ng·h/mL. For the same molecule, in the series with E coli (ATCC 43895), the growth inhibition result is “inhibited growth”. Further, the growth inhibition result in series [6] is “inhibited growth”.
For `Oc1ccc(/C=C/c2cc(O)cc(O)c2)cc1` [R, 3,5,4′-tri-hydroxy-trans-stilbene], the figures for the anti-bacterial effects entry (with E. coli (48953); in the series with S. aureus (25923); in [7] (6 h of incubation)) were “showed anti-bacterial effects”, “showed anti-bacterial effects” and “significant anti-bacterial effects”, respectively. Further, the “growth (CFU formation)” value in the series on E. coli (48953) is recorded as “significantly decreased the growth”; in the series with S. aureus (25923), “significantly decreased the growth”; in the series with S. enteritidis (13076), “still not shown”; in the series with L. monocytogenes (15313), “still not shown”. For the same molecule, the release behavior entry in [4] (RES NPs study) is given as “burst release”. Further, the release profile result in series [4] (dialysis method) is “burst release”. The “anti-bacterial effects of 300 μg/mL compared with 200 μg/mL” value in series [7] (FIG. 9) is reported as “significant enhanced anti-bacterial effects”. In addition, in series [2], the aqueous solubility is less than 100 µg/mL. Also, the growth inhibition result (in the series on E coli (ATCC 43895); in series [6]) was “inhibited growth” each time.
With `O=C(O[C@@H]1Cc2c(O)cc(O)cc2O[C@@H]1c1cc(O)c(O)c(O)c1)c1cc(O)c(O)c(O)c1` [EGCG, Epigallocatechin Gallate], the “time to complete degradation” value amounted to 24 h in series [8] (4° C.), 6 h in [8] (25° C.) and 3 h in series [8] (37° C.). Besides, in [9], the absolute oral bioavailability entry was “about 0.1%”. The “peak plasma EGCG concentration” value in series [10] is 0.15 UM.
